≈ marks a conversion by molar mass, not a printed value.
Experiments:
Format in all cases: cell-based
Streptococcus pneumoniae = assay: MIC by agar dilution, SPNE 9912; conditions: for MIC: Streptococcus pneumoniae, strain SPNE 9912, read-out: Antibacterial Activity Minimum Inhibitory Concentration SPNE 9912; for Antibacterial Activity Minimum Inhibitory Concentration SPNE 9912: strain SPNE 9912
Excerpt: (§1) The in vitro activity of compounds of this invention can be assessed by standard testing procedures such as the determination of minimum inhibitory concentration (MIC) by agar dilution as described in “Approved Standard.

Enterococcus faecium = assay: MIC by agar dilution, EFAE 12712; conditions: for MIC: Enterococcus faecium, strain EFAE 12712, read-out: Antibacterial Activity Minimum Inhibitory Concentration EFAE 12712; for Antibacterial Activity Minimum Inhibitory Concentration EFAE 12712: strain EFAE 12712
Excerpt: as §1

Streptococcus pyogenes = assay: MIC by agar dilution, SPYO 152; conditions: for MIC: Streptococcus pyogenes, strain SPYO 152, read-out: Antibacterial Activity Minimum Inhibitory Concentration SPYO 152; for Antibacterial Activity Minimum Inhibitory Concentration SPYO 152: strain SPYO 152
Excerpt: as §1

Moraxella catarrhalis = assay: MIC by agar dilution, MCAT 30607; conditions: for MIC: Moraxella catarrhalis, strain MCAT 30607, read-out: Antibacterial Activity Minimum Inhibitory Concentration MCAT 30607; for Antibacterial Activity Minimum Inhibitory Concentration MCAT 30607: strain MCAT 30607
Excerpt: as §1

H. influenzae = assay: MIC by agar dilution, HINF 30063; conditions: for MIC: Haemophilus influenzae, strain HINF 30063, read-out: Antibacterial Activity Minimum Inhibitory Concentration HINF 30063; for Antibacterial Activity Minimum Inhibitory Concentration HINF 30063: strain HINF 30063
Excerpt: as §1

Staphylococcus aureus = assay: MIC by agar dilution, SAUR 9213; conditions: for MIC: Staphylococcus aureus, strain SAUR 9213, read-out: Antibacterial Activity Minimum Inhibitory Concentration SAUR 9213; for Antibacterial Activity Minimum Inhibitory Concentration SAUR 9213: strain SAUR 9213
Excerpt: as §1

[1] = test system: Staphylococcus epidermidis; assay: MIC by agar dilution, SEPI 30593; conditions: for MIC: Staphylococcus epidermidis, strain SEPI 30593, read-out: Antibacterial Activity Minimum Inhibitory Concentration SEPI 30593; for Antibacterial Activity Minimum Inhibitory Concentration SEPI 30593: strain SEPI 30593
Excerpt: as §1

Enterococcus faecalis = assay: MIC by agar dilution, EFAE 9217; conditions: for MIC: Enterococcus faecalis, strain EFAE 9217, read-out: Antibacterial Activity Minimum Inhibitory Concentration EFAE 9217; for Antibacterial Activity Minimum Inhibitory Concentration EFAE 9217: strain EFAE 9217
Excerpt: as §1

| Structure (SMILES) | MIC (Streptococcus pneumoniae) [µg/mL] | MIC (Enterococcus faecium) [µg/mL] | MIC (Streptococcus pyogenes) [µg/mL] | MIC (Moraxella catarrhalis) [µg/mL] | MIC (H. influenzae) [µg/mL] | MIC (Staphylococcus aureus) [µg/mL] | MIC [1] [µg/mL] | MIC (Enterococcus faecalis) [µg/mL] | Antibacterial Activity Minimum Inhibitory Concentration SPNE 9912 (Streptococcus pneumoniae) [µg/mL] | Antibacterial Activity Minimum Inhibitory Concentration EFAE 12712 (Enterococcus faecium) [µg/mL] | Antibacterial Activity Minimum Inhibitory Concentration SPYO 152 (Streptococcus pyogenes) [µg/mL] | Antibacterial Activity Minimum Inhibitory Concentration MCAT 30607 (Moraxella catarrhalis) [µg/mL] | Antibacterial Activity Minimum Inhibitory Concentration HINF 30063 (H. influenzae) [µg/mL] | Antibacterial Activity Minimum Inhibitory Concentration SAUR 9213 (Staphylococcus aureus) [µg/mL] | Antibacterial Activity Minimum Inhibitory Concentration SEPI 30593 [1] [µg/mL] | Antibacterial Activity Minimum Inhibitory Concentration EFAE 9217 (Enterococcus faecalis) [µg/mL] |
| --- | --- | --- | --- | --- | --- | --- | --- | --- | --- | --- | --- | --- | --- | --- | --- | --- |
| CCC(=S)NC[C@H]1CN(c2ccc(N3CCS(=O)(=NC)CC3)c(F)c2)C(=O)O1 [Example 25, N-[((5S)-3-{3-Fluoro-4-[1-(methylimino)-1-oxido-1λ^4,4-thiazinan-4-yl]phenyl}-2-oxo-1,3-oxazolidin-5-yl)methyl]propanethioamide] | 0.25 (≈ 0.583 µM) | 1 (≈ 2.33 µM) | 0.5 (≈ 1.17 µM) | 4 (≈ 9.33 µM) | 4 (≈ 9.33 µM) | 2 (≈ 4.67 µM) | 0.5 (≈ 1.17 µM) | 1 (≈ 2.33 µM) | – | – | – | – | – | – | – | – |
| CC(=O)N=S1(=O)CCN(c2ccc(N3C[C@H](CNC(C)=O)OC3=O)cc2F)CC1 [PREP 2, N-({(5S)-3-[3-Fluoro-4-(1-acetylimino-1-oxido-1λ^4,4-thiazinan-4-yl)phenyl]-2-oxo-1,3-oxazolidin-5-yl}methyl)acetamide] | – | – | – | – | – | – | – | – | 1 | 4 | 2 | 8 | 32 | 16 | 2 | 2 |
| CC(=O)NC[C@H]1CN(c2ccc(N3CCS(=N)(=O)CC3)c(F)c2)C(=O)O1 [PREP 1, N-({(5S)-3-[3-Fluoro-4-(1-imino-1-oxido-1λ^4,4-thiazinan-4-yl)phenyl]-2-oxo-1,3-oxazolidin-5-yl}methyl)acetamide] | – | – | – | – | – | – | – | – | 1 | 4 | 2 | 8 | 16 | 16 | 4 | 8 |
| CCC(=S)NCC1CN(c2ccc(C3CC[S+2]([O-])([N-]C)CC3)c(F)c2)C(=O)O1 [Example 32, N-[((5S)-3-{3-Fluoro-4-[1-(methylimino)-1-oxidohexahydro-1λ^4-thiopyran-4-yl]phenyl}-2-oxo-1,3-oxazolidin-5-yl)methyl]propanethioamide, E-isomer] | 0.5 (≈ 1.17 µM) | 2 (≈ 4.68 µM) | 1 (≈ 2.34 µM) | 8 (≈ 18.7 µM) | 8 (≈ 18.7 µM) | 4 (≈ 9.36 µM) | 1 (≈ 2.34 µM) | 2 (≈ 4.68 µM) | – | – | – | – | – | – | – | – |
| CCC(=S)NC[C@H]1CN(c2ccc(C3CCS(=N)(=O)CC3)c(F)c2)C(=O)O1 (single isomer, unassigned) [Example 10] | – | – | – | – | – | – | – | – | 0.25 | 0.5 | 0.25 | 2 | 2 | 1 | 0.25 | 0.5 |
| CCC(=S)NC[C@H]1CN(c2ccc([C@H]3CC[S@+2]([O-])([N-]C)CC3)c(F)c2)C(=O)O1 [Example 13, N-({(5S)-3-[3-Fluoro-4-[1-(methylimino)-1-oxidohexahydro-1λ^4-thiopyran-4-yl]phenyl]-2-oxo-1,3-oxazolidin-5-yl}methyl)propanethioamide, Z-isomer] | 0.25 (≈ 0.585 µM) | 1 (≈ 2.34 µM) | 0.25 (≈ 0.585 µM) | 2 (≈ 4.68 µM) | 8 (≈ 18.7 µM) | 1 (≈ 2.34 µM) | 0.5 (≈ 1.17 µM) | 0.5 (≈ 1.17 µM) | – | – | – | – | – | – | – | – |
| CCC(=S)NC[C@H]1CN(c2ccc(C3CCS(=O)(=NC(C)=O)CC3)c(F)c2)C(=O)O1 (single isomer, unassigned) [Example 14] | – | – | – | – | – | – | – | – | 0.25 | 1 | 0.25 | 2 | 4 | 1 | 0.5 | 0.5 |
| COC(=O)N=S1(=O)CCN(c2ccc(N3C[C@H](CNC(=S)C4CC4)OC3=O)cc2F)CC1 [Example 28, N-[((5S)-3-{3-Fluoro-4-(1-[(methoxycarbonyl)imino]-1-oxido-1λ^4,4-thiazinan-4-yl)phenyl}-2-oxo-1,3-oxazolidin-5-yl)methyl]cyclopropanecarbothioamide] | – | – | – | – | – | – | – | – | 0.25 | 1 | 0.5 | 2 | 4 | 2 | 0.5 | 1 |
| CC(=O)NC[C@H]1CN(c2ccc(C3CCS(=N)(=O)CC3)c(F)c2)C(=O)O1 (single isomer, unassigned) [Example 4] | – | – | – | – | – | – | – | – | 1 | 4 | 1 | 4 | 8 | 16 | 2 | 2 |
| CC(=O)NC[C@H]1CN(c2ccc(C3CCS(=O)(=NC(=O)NCc4ccccc4)CC3)c(F)c2)C(=O)O1 (single isomer, unassigned) [Example 34] | – | – | – | – | – | – | – | – | 1 | 4 | 2 | 16 | 32 | 16 | 2 | 4 |
| C[N-][S+2]1([O-])CCC(c2ccc(N3CC(CNC(=S)C4CC4)OC3=O)cc2F)CC1 [Example 31, N-[((5S)-3-{3-Fluoro-4-[1-(methylimino)-1-oxidohexahydro-1λ^4-thiopyran-4-yl]phenyl}-2-oxo-1,3-oxazolidin-5-yl)methyl]cyclopropanecarbothioamide, E-isomer] | – | – | – | – | – | – | – | – | 0.5 | 2 | 1 | 4 | 8 | 2 | 1 | 1 |
| CN=S1(=O)CCN(c2ccc(N3C[C@H](CNC(=S)C4CC4)OC3=O)cc2F)CC1 [Example 26, N-[((5S)-3-{3-Fluoro-4-[1-(methylimino)-1-oxido-1λ^4,4-thiazinan-4-yl]phenyl}-2-oxo-1,3-oxazolidin-5-yl)methyl]cyclopropanecarbothioamide] | 0.25 (≈ 0.567 µM) | 1 (≈ 2.27 µM) | 0.5 (≈ 1.13 µM) | 2 (≈ 4.54 µM) | 4 (≈ 9.08 µM) | 2 (≈ 4.54 µM) | 0.5 (≈ 1.13 µM) | 0.5 (≈ 1.13 µM) | – | – | – | – | – | – | – | – |
| CC(=O)NC[C@H]1CN(c2ccc(C3CCS(=O)(=NC(=O)OCc4ccccc4)CC3)c(F)c2)C(=O)O1 (single isomer, unassigned) [Example 33] | – | – | – | – | – | – | – | – | 1 | 4 | 1 | 16 | 64 | 8 | 2 | 4 |
| CC(=O)NC[C@H]1CN(c2ccc(C3CCS(=N)(=O)CC3)c(F)c2)C(=O)O1 (single isomer, unassigned) [Example 8] | – | – | – | – | – | – | – | – | 0.5 | 2 | 1 | 2 | 8 | 8 | 1 | 2 |

From patent US20010046987A1, “Oxazolidinones having a sulfoximine functionality” (priority 1999, published 2001)
